The source of these data is patent EP1585727B1, “INDOLES USEFUL IN THE TREATMENT OF ANDROGEN-RECEPTOR RELATED DISEASES” (priority 2002, dated 2004).

In test [1] the target is T1, human androgen receptor (Homo sapiens, UniProt P10275).
T1 construct: expressed in transfected cells; host or cells: Chinese hamster ovary (CHO) cells, cell line CHO-AR-pMMTV-LUC 1G12-A5-CA
T1 sequence (P10275 1-920): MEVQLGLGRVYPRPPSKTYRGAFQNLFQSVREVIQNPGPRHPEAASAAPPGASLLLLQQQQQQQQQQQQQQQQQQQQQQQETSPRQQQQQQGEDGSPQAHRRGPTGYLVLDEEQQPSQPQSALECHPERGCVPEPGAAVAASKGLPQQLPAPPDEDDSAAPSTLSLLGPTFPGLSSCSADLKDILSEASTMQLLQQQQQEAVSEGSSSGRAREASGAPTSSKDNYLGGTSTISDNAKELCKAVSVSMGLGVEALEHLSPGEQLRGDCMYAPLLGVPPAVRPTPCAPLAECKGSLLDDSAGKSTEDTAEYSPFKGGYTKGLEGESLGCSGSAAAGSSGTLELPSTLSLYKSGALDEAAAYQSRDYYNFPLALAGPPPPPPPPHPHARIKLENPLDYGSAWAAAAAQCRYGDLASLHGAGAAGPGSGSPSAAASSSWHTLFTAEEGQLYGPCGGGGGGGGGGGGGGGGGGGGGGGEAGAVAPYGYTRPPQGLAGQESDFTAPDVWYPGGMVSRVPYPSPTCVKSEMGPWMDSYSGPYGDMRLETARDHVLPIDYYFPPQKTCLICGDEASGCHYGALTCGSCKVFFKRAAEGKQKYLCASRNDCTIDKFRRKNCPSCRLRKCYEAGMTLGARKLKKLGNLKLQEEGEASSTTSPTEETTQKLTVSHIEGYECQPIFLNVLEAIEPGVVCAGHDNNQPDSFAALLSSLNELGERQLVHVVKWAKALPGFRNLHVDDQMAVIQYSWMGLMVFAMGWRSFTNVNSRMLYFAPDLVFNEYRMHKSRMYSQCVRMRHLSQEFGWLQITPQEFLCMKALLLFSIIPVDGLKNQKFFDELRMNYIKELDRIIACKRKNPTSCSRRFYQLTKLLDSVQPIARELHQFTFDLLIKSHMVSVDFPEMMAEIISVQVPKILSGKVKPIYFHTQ
The experiment in a line: Androgen receptor transactivation assay, antiandrogenic activity: inhibition of transactivation in the presence of 1 nM DHT (CHO-AR-pMMTV-LUC cells; Table 4). Type of test: cell-based. Particulars: for Emax: intrinsic activity relative to reference antiandrogen Hydroxyflutamide (set at 100%). How it is done:
Compounds were tested for their Androgen Receptor activity in a transactivation assay and in a binding assay.
The (anti-)androgenic activity of test compounds (EC50 and intrinsic activity) was determined in an in vitro bioassay of Chinese hamster ovary (CHO) cells stably transfected with the human androgen receptor expression plasmid and a reporter plasmid in which the MMTV-promoter is linked to the luciferase reporter gene. The cell-line CHO-AR-pMMTV-LUC 1G12-AS-CA is described in Schoonen et al. (2000), Journal of Steroid Biochemistry and Molecular Biology 74(4):213-222. The antiandrogenic activity of a test compound was determined by the inhibition of the transactivation via the androgen receptor of the enzyme luciferase in the presence of 1 nM DHT (5 α-dihydrotestosterone, 17β-hydroxy-5α-androstan-3-one). Intrinsic activity of antiandrogenic activity was determined in the presence of the reference antiandrogen 2-Hydroxy-2-methyl-N-(4-nitro-3-trifluoromethyl-phenyl)-propionamide (Hydroxyflutamide), and set at 100%. For androgenic activity, maximal intrinsic activity in the presence of 100 nM DHT was set at 100%. Table 4 Androgen receptor activity

Test [2] has as its target T1, human androgen receptor. Description: Androgen receptor transactivation assay, androgenic activity in the presence of 0.1 µmol/l onapristone (CHO-AR-pMMTV-LUC cells; Table 5). Type of test: cell-based. The note with it: for ago efficacy: maximal intrinsic activity in the presence of 100 nM DHT set at 1.00; for ago potency: potency expressed as percentage of DHT activity. The method, then:
The androgenic activity (EC50, potency, and efficacy) of the compounds in Table 5 was determined in an in vitro bioassay of Chinese hamster ovary (CHO) cells stably transfected with the human androgen receptor expression plasmid and a reporter plasmid in which the MMTV promotor is linked to the luciferase reporter gene. The cell line CHO-AR-pMMTV-LUC 1G12-A5-CA is described in Schoonen et al. (J. Steroid Biochem. Molec. Biol. […]; 74: 213-222). The androgen receptor activity of compounds was determined in the presence of 0.1 µmol/l onapristone. The maximal efficacy in the presence of 100 nmol/l DHT was set as 100%. The potencies are expressed as percentage of DHT activity. Table 5 Androgen receptor activity

The mark [3] stands for this setting: in the presence of 1 nM DHT, read-out: ant efficacy.
The mark [4] stands for this setting: read-out: ant efficacy, in the presence of 1 nM DHT.

Read-outs that look alike come from different tables or passages of the source.

On to `COc1ccc2c(Sc3ccccc3[N+](=O)[O-])cn(Cc3cccc(F)c3)c2c1` [Compound 71], for which the Emax at human androgen receptor [1] (setting [3]) was less than 20%.

`COc1cccc(Cn2cc(Sc3ccccc3[N+](=O)[O-])c3ccc(OC)cc32)c1` [Compound 72]: on human androgen receptor [1] (setting [3]), the Emax was less than 20%.

Regarding `COc1ccc2c(Sc3ccccc3[N+](=O)[O-])cn(Cc3cccc(C)c3)c2c1` [Compound 73], on human androgen receptor [1] (setting [3]), the Emax is less than 20%.

As to `COc1ccc2c(Sc3ccccc3[N+](=O)[O-])cn(Cc3cccc([N+](=O)[O-])c3)c2c1` [Compound 74], at human androgen receptor [1] (setting [4]), the Emax was less than 20%.

Consider `COc1ccc2c(Sc3ccccc3[N+](=O)[O-])cn(Cc3cccnc3)c2c1` [Compound 75], for which the Emax on human androgen receptor [1] (setting [3]) was less than 20%.

For `COc1ccc2c(Sc3ccccc3[N+](=O)[O-])cn(Cc3ccc(Cl)c(C(F)(F)F)c3)c2c1` [Compound 76], on human androgen receptor [1] (setting [3]), the Emax was less than 20%.

On to `COc1ccc2c(Sc3ccccc3[N+](=O)[O-])cn(Cc3cccc(OC(F)(F)F)c3)c2c1` [Compound 77], for which, on human androgen receptor [1] (setting [3]), the Emax was less than 20%.

For the compound `COc1ccc2c(Sc3ccccc3[N+](=O)[O-])cn(Cc3cccc(C(F)(F)F)c3)c2c1` [Compound 78], the Emax at human androgen receptor [1] (setting [3]) is less than 20%.

On to `COc1ccc2c(Sc3ccccc3[N+](=O)[O-])cn(Cc3csc(C)n3)c2c1` [Compound 79], for which the Emax at human androgen receptor [1] (setting [3]) was less than 20%.

Usually EC50 stands for the concentration needed to bring the measured effect to its halfway point. As to `COc1ccc2c(Sc3ccccc3[N+](=O)[O-])cn(Cc3c(C)noc3C)c2c1` [Compound 80], the EC50 at human androgen receptor [1] (antiandrogenic activity, in the presence of 1 nM DHT, read-out: ant EC50) was greater than 10 µM. At human androgen receptor [1] (setting [3]), the Emax lay in the range of 20 to 50%.

Regarding `COc1ccc2c(Sc3ccccc3[N+](=O)[O-])cn(Cc3ccc(Cl)cc3)c2c1` [Compound 81], at human androgen receptor [1] (setting [3]), the Emax is 50 to 80%.

Turning to `COc1ccc2c(Sc3ccccc3[N+](=O)[O-])cn(Cc3ccc(C#N)cc3)c2c1` [Compound 82], the Emax on human androgen receptor [1] (setting [3]) is less than 20%.

For the compound `COc1ccc2c(Sc3ccccc3[N+](=O)[O-])cn(Cc3ccc(F)cc3)c2c1` [Compound 83], at human androgen receptor [1] (setting [3]), the Emax was less than 20%.

Turning to `COc1ccc(Cn2cc(Sc3ccccc3[N+](=O)[O-])c3ccc(OC)cc32)cc1` [Compound 84], the Emax on human androgen receptor [1] (setting [3]) was greater than 80%.

In the case of `COc1ccc2c(Sc3ccccc3[N+](=O)[O-])cn(Cc3ccc(C)cc3)c2c1` [Compound 85], the Emax on human androgen receptor [1] (setting [3]) was in the range of 20 to 50%.

Consider `COc1ccc2c(Sc3ccccc3[N+](=O)[O-])cn(Cc3cnc(Cl)s3)c2c1` [Compound 87], for which the Emax at human androgen receptor [1] (setting [3]) was less than 20%.

In the case of `COc1ccc2c(Sc3ccccc3[N+](=O)[O-])cn(Cc3ccc(Cl)s3)c2c1` [Compound 88], the Emax at human androgen receptor [1] (setting [3]) is less than 20%.

Take `COc1ccc2c(Sc3ccccc3[N+](=O)[O-])cn(CC3CCCCC3)c2c1` [Compound 89]: the Emax at human androgen receptor [1] (setting [4]) was in the range of 20 to 50%.

As to `O=[N+]([O-])c1ccccc1Sc1cn(Cc2ccccc2)c2ccccc12` [Compound 90], the Emax on human androgen receptor [1] (setting [3]) was less than 20%.

As for `COc1ccc2c(c1)c(Sc1ccccc1[N+](=O)[O-])cn2Cc1ccccc1` [Compound 91], the Emax on human androgen receptor [1] (setting [3]) is greater than 80%.

For the compound `COc1ccc2c(Sc3ccccc3[N+](=O)[O-])cn(Cc3ccncc3)c2c1` [Compound 93], at human androgen receptor [2], the ago efficacy entry is “+ (between 0.50 and 0.80)”; the ago potency result was “± (between 0.1 % and 1%)”.

For the compound `COc1ccc2c(Sc3ccccc3[N+](=O)[O-])cn(Cc3cc(F)c(F)c(F)c3)c2c1` [Compound 94, 6-Methoxy-3-(2-nitro-phenylsulfanyl)-1-(3,4,5-trifluoro-benzyl)-1H indole], at human androgen receptor [2], the ago efficacy result was “++ (≥0.80)”; the ago potency result is “+ (between 1% and 5%)”.

As for `COc1ccc2c(Sc3ccccc3[N+](=O)[O-])cn(Cc3cc(F)cc(F)c3F)c2c1` [Compound 95, 6-Methoxy-3-(2-nitro-phenylsulfanyl)-1-(2,3,5-trifluoro-benzyl)-1H-indole], at human androgen receptor [2], the ago efficacy result was “++ (≥0.80)”; the ago potency result was “± (between 0.1 % and 1%)”.

Turning to `COc1ccc2c(Sc3ccccc3[N+](=O)[O-])cn(Cc3ccc(Cl)nc3)c2c1` [Compound 96, 1-(6-Chloro-pyridin-3-ylmethyl)-6-methoxy-3-(2-nitro-phenylsulfanyl)-1H-indole], at human androgen receptor [2], the ago efficacy result is “± (between 0.20 and 0.50)”; the ago potency entry was “± (between 0.1 % and 1%)”.

For `O=C(CF)Nc1ccc2c(Sc3ccccc3[N+](=O)[O-])cn(Cc3cc(F)cc(F)c3)c2c1` [Compound 97, N-[1-(3,5-Difluoro-benzyl)-3-(2-nitro-phenylsulfanyl)-1H-indol-6-yl]-2-fluoro-acetamide], at human androgen receptor [2], the ago efficacy result is on record as “++ (≥0.80)”; the ago potency result was “+ (between 1% and 5%)”.

Take `O=C(Nc1ccc2c(Sc3ccccc3[N+](=O)[O-])cn(Cc3cc(F)cc(F)c3)c2c1)C(F)F` [Compound 98, N-[1-(3,5-Difluoro-benzyl)-3-(2-nitro-phenylsulfanyl)-1H-indol-6-yl]-2,2-difluoro-acetamide]: at human androgen receptor [2], the ago efficacy entry was “+ (between 0.50 and 0.80)”; the ago potency entry is on record as “++ (>5%)”.

`CCC(=O)Nc1ccc2c(Sc3ccccc3[N+](=O)[O-])cn(Cc3cc(F)cc(F)c3)c2c1` [Compound 99, N-[1-(3,5-Difluoro-benzyl)-3-(2-nitro-phenylsulfanyl)-1H-indol-6-yl]-propionamide]: on human androgen receptor [2], the ago efficacy entry is “+ (between 0.50 and 0.80)”; the ago potency entry is “± (between 0.1 % and 1%)”.

On to `O=C(CF)Nc1ccc2c(Sc3ccccc3[N+](=O)[O-])cn(Cc3ccccn3)c2c1` [Compound 100, 2-Fluoro-N-[3-(2-nitro-phenylsulfanyl)-1-pyridin-2-ylmethyl-1H-indol-6-yl]-acetamide], for which, at human androgen receptor [2], the ago efficacy entry is “++ (≥0.80)”; the ago potency result is “+ (between 1% and 5%)”.

For the compound `CC(=O)Nc1ccc2c(Sc3ccccc3[N+](=O)[O-])cn(Cc3ccccn3)c2c1` [Compound 101, N-[3-(2-Nitro-phenylsulfanyl)-1-pyridin-2-ylmethyl-1H-indol-6-yl]-acetamide], on human androgen receptor [2], the ago efficacy result was “+ (between 0.50 and 0.80)”; the ago potency entry is “+ (between 1% and 5%)”.

With `CCC(=O)Nc1ccc2c(Sc3ccccc3[N+](=O)[O-])cn(Cc3ccccn3)c2c1` [Compound 102, N-[3-(2-Nitro-phenylsulfanyl)-1-pyridin-2-ylmethyl-1H-indol-6-yl]-propionamide], on human androgen receptor [2], the ago efficacy result is “+ (between 0.50 and 0.80)”; the ago potency result was “+ (between 1% and 5%)”.

As to `CC(=O)Nc1ccc2c(Sc3ccccc3[N+](=O)[O-])cn(Cc3cccnc3)c2c1` [Compound 103, N-[3-(2-Nitro-phenylsulfanyl)-1-pyridin-3-ylmethyl-1H-indol-6-yl]-acetamide], on human androgen receptor [2], the ago efficacy result was “+ (between 0.50 and 0.80)”; the ago potency result was “+ (between 1% and 5%)”.

In the case of `O=C(CF)Nc1ccc2c(Sc3ccccc3[N+](=O)[O-])cn(Cc3cccnc3)c2c1` [Compound 104, 2-Fluoro-N-[3-(2-nitro-phenylsulfanyl)-1-pyridin-3-ylmethyl-1H-indol-6-yl]-acetamide], at human androgen receptor [2], the ago efficacy result is “- (<0.20)”; the ago potency result is “+ (between 1% and 5%)”.

For `CCC(=O)Nc1ccc2c(Sc3ccccc3[N+](=O)[O-])cn(Cc3cccnc3)c2c1` [Compound 105, N-[3-(2-Nitro-phenylsulfanyl)-pyridin-3-ylmethyl-1H-indol-6-yl]-propionamide], on human androgen receptor [2], the ago efficacy result is “± (between 0.20 and 0.50)”; the ago potency result is “+ (between 1% and 5%)”.
